Results reported in patent publication US20260055079A1, “PHTHALAZINONE COMPOUNDS AS PARP7 INHIBITORS” (AZKARRA THERAPEUTICS, INC., priority 2022, published 2026).

The compounds below were run against His-GST-PARP7 (Homo sapiens (Human), UniProt Q7Z3E1) (assay: PARP7 biochemical assay). Conditions: read-out: PARP7 IC50.
Chain of His-GST-PARP7 (Q7Z3E1 whole entry): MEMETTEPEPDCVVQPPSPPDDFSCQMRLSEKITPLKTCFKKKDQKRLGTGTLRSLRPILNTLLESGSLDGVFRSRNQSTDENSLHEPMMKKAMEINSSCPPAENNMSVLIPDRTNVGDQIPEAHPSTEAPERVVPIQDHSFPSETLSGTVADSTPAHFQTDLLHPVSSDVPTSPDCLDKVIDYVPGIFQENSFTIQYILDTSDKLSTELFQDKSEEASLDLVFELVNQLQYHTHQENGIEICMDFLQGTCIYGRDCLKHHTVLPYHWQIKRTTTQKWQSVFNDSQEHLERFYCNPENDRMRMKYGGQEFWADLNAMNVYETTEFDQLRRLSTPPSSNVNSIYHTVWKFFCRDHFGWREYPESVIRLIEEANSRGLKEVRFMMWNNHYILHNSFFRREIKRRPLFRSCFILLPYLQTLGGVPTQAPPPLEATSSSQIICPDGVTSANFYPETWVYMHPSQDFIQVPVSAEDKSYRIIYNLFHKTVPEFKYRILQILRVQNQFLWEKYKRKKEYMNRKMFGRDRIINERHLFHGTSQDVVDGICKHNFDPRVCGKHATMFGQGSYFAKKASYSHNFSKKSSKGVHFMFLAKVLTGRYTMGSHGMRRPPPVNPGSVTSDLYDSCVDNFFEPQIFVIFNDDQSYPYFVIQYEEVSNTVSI

SMILES | IC50 [nM]
O=C(c1cccc(Cc2n[nH]c(=O)c3ccc(OC4CCC4)cc23)c1)N1CCN(c2ncc(C(F)(F)F)cn2)CC1 [Example 170, 6-cyclobutoxy-4-(3-(4-(5-(trifluoromethyl)pyrimidin-2-yl)piperazine-1-carbonyl)benzyl)phthalazin-1(2H)-one] | < 50
O=C(c1cccc(Cc2n[nH]c(=O)c3ccc(OC4CCC4)cc23)c1Cl)N1CCN(c2ncc(C(F)(F)F)cn2)CC1 [Example 171, 4-(2-Chloro-3-(4-(5-(trifluoromethyl)pyrimidin-2-yl)piperazine-1-carbonyl)benzyl)-6-cyclobutoxyphthalazin-1(2H)-one] | 50 to 100
O=C(c1ccc(Cc2n[nH]c(=O)c3ccc(OC4CCC4)cc23)cc1F)N1CCN(c2ncc(C(F)(F)F)cn2)CC1 [Example 172, 6-Cyclobutoxy-4-(3-fluoro-4-(4-(5-(trifluoromethyl)pyrimidin-2-yl)piperazine-1-carbonyl)benzyl)phthalazin-1(2H)-one] | > 2000
O=C(c1ccc(Cl)c(Cc2n[nH]c(=O)c3ccc(OC4CCC4)cc23)c1)N1CCN(c2ncc(C(F)(F)F)cn2)CC1 [Example 173, 4-(2-Chloro-5-(4-(5-(trifluoromethyl)pyrimidin-2-yl)piperazine-1-carbonyl)benzyl)-6-cyclobutoxyphthalazin-1(2H)-one] | 500 to 2000
O=C(c1cc(Cl)cc(Cc2n[nH]c(=O)c3ccc(OC4CCC4)cc23)c1)N1CCN(c2ncc(C(F)(F)F)cn2)CC1 [Example 174, 4-(3-chloro-5-(4-(5-(trifluoromethyl)pyrimidin-2-yl)piperazine-1-carbonyl)benzyl)-6-cyclobutoxyphthalazin-1(2H)-one] | < 50
N#Cc1ccnc(N2CCN(C(=O)c3cc(Cc4n[nH]c(=O)c5ccc(OC6CCC6)cc45)cc4c3OCC4)CC2)c1 [Example 175, 2-(4-(5-((7-cyclobutoxy-4-oxo-3,4-dihydrophthalazin-1-yl)methyl)-2,3-dihydrobenzofuran-7-carbonyl)piperazin-1-yl)isonicotinonitrile] | 50 to 100
N#Cc1ccc(N2CCN(C(=O)c3cc(Cc4n[nH]c(=O)c5ccc(CC(F)(F)F)cc45)ccc3F)CC2)nc1 [Example 183, 6-(4-(2-Fluoro-5-((4-oxo-7-(2,2,2-trifluoroethyl)-3,4-dihydrophthalazin-1-yl)methyl)benzoyl)piperazin-1-yl)nicotinonitrile] | < 50
CN1CCN(C(=O)c2ccc(Cc3n[nH]c(=O)c4c(F)cccc34)cc2)CC1 [Example 186, 8-Fluoro-4-(4-(4-methylpiperazine-1-carbonyl)benzyl)phthalazin-1(2H)-one] | > 2000
CN(c1cc(C#N)ccn1)C1CN(S(=O)(=O)c2cc(Cc3n[nH]c(=O)c4ccc(OC5CCC5)cc34)ccc2F)C1 [Example 189, 2-((1-((5-((7-cyclobutoxy-4-oxo-3,4-dihydrophthalazin-1-yl)methyl)-2-fluorophenyl)sulfonyl)azetidin-3-yl)(methyl)amino)isonicotinonitrile] | 500 to 2000
CC#Cc1ccc2c(=O)[nH]nc(C(C)CCCC(=O)N3CCN(c4ncc(C(F)(F)F)cn4)CC3)c2c1 (stereo not shown) [Example 195, 4-(6-Oxo-6-(4-(5-(trifluoromethyl)pyrimidin-2-yl)piperazin-1-yl)hexan-2-yl)-6-(prop-1-yn-1-yl)phthalazin-1(2H)-one] | < 50
CC#Cc1ccc2c(=O)[nH]nc(Cc3ccc(F)c(C(=O)NC(C)c4nnc(C(F)(F)F)o4)c3)c2c1 (stereo not shown) [Example 200, 2-Fluoro-5-((4-oxo-7-(prop-1-ynyl)-3,4-dihydrophthalazin-1-yl)methyl)-N-(1-(5-(trifluoromethyl)-1,3,4-oxadiazol-2-yl)ethyl)benzamide] | > 2000
CC#Cc1ccc2c(=O)[nH]nc(Cc3ccc(F)c(C(=O)N(C)Cc4nnc(C(F)(F)F)o4)c3)c2c1 [Example 202, 2-Fluoro-N-methyl-5-((4-oxo-7-(prop-1-ynyl)-3,4-dihydrophthalazin-1-yl)methyl)-N-((5-(trifluoromethyl)-1,3,4-oxadiazol-2-yl)methyl)benzamide] | 100 to 500
O=C(NC1CN(C(=O)C2CC2)C1)c1cc(Cc2n[nH]c(=O)c3ccc(OC4CCC4)cc23)ccc1F [Example 203, 5-((7-Cyclobutoxy-4-oxo-3,4-dihydrophthalazin-1-yl)methyl)-N-(1-(cyclopropanecarbonyl)azetidin-3-yl)-2-fluorobenzamide] | 100 to 500
N#Cc1ccc(N2CC(NC(=O)c3cc(Cc4n[nH]c(=O)c5ccc(OC6CCC6)cc45)ccc3F)C2)nc1 [Example 204, N-(1-(5-Cyanopyridin-2-yl)azetidin-3-yl)-5-((7-cyclobutoxy-4-oxo-3,4-dihydrophthalazin-1-yl)methyl)-2-fluorobenzamide] | > 2000
O=C(NC1CN(c2ncc(C(F)(F)F)cn2)C1)c1cc(Cc2n[nH]c(=O)c3ccc(OC4CCC4)cc23)ccc1F [Example 205, 5-((7-Cyclobutoxy-4-oxo-3,4-dihydrophthalazin-1-yl)methyl)-2-fluoro-N-(1-(5-(trifluoromethyl)pyrimidin-2-yl)azetidin-3-yl)benzamide] | > 2000
O=C(C1CC1)N1CCN(c2noc3c(Cc4n[nH]c(=O)c5ccc(OC6CCC6)cc45)cccc23)CC1 [Example 206, 6-Cyclobutoxy-4-((3-(4-(cyclopropanecarbonyl)piperazin-1-yl)benzo[d]isoxazol-7-yl)methyl)phthalazin-1(2H)-one] | 100 to 500
O=c1[nH]nc(Cc2cccc3c(N4CCN(c5ncc(C(F)(F)F)cn5)CC4)noc23)c2cc(OC3CCC3)ccc12 [Example 207, 6-Cyclobutoxy-4-((3-(4-(5-(trifluoromethyl)pyrimidin-2-yl)piperazin-1-yl)benzo[d]isoxazol-7-yl)methyl)phthalazin-1(2H)-one] | > 2000
O=c1[nH]nc(Cc2ccc3onc(N4CCN(c5ncc(C(F)(F)F)cn5)CC4)c3c2)c2cc(OC3CCC3)ccc12 [Example 209, 6-Cyclobutoxy-4-((3-(4-(5-(trifluoromethyl)pyrimidin-2-yl)piperazin-1-yl)benzo[d]isoxazol-5-yl)methyl)phthalazin-1(2H)-one] | > 2000
O=C(C1CC1)N1CCN(c2noc3ccc(Cc4n[nH]c(=O)c5ccc(OC6CCC6)cc45)cc23)CC1 [Example 210, 6-cyclobutoxy-4-((3-(4-(cyclopropanecarbonyl)piperazin-1-yl)benzo[d]isoxazol-5-yl)methyl)phthalazin-1(2H)-one] | 500 to 2000
O=c1[nH]nc(Cc2ccc3c(N4CCN(c5ncc(C(F)(F)F)cn5)CC4)noc3c2)c2cc(OC3CCC3)ccc12 [Example 212, 6-Cyclobutoxy-4-((3-(4-(5-(trifluoromethyl)pyrimidin-2-yl)piperazin-1-yl)benzo[d]isoxazol-6-yl)methyl)phthalazin-1(2H)-one] | > 2000
O=C(C1CC1)N1CCN(c2noc3cc(Cc4n[nH]c(=O)c5ccc(OC6CCC6)cc45)ccc23)CC1 [Example 213, 6-cyclobutoxy-4-((3-(4-(cyclopropanecarbonyl)piperazin-1-yl)benzo[d]isoxazol-6-yl)methyl)phthalazin-1(2H)-one] | > 2000
N#Cc1ccc(N2CCN(c3noc4cc(Cc5n[nH]c(=O)c6ccc(OC7CCC7)cc56)ccc34)CC2)nc1 [Example 214, 6-(4-(6-((7-Cyclobutoxy-4-oxo-3,4-dihydrophthalazin-1-yl)methyl)benzo[d]isoxazol-3-yl)piperazin-1-yl)nicotinonitrile] | > 2000
